# Patent US5221669A, “Antiviral compositions containing α-cyclodextrin sulfates alone and in combination with other known antiviral agents and glucocorticoids and methods of treating viral infections” (The United States of America as represented by the …, priority 1991, dated 1993)
# Where “and” joins values, the source holds several entries; their conditions need not be identical. Equal entries are not always repeated. Where two headings read alike, the source gives them in different places.
# Tests used:
# [1] = test system: HIV-1; assay: HIV-1 replication in PHA-stimulated PMNC cultures, RT method on culture supernatants; conditions: for Virus-enhancement effect: low drug concentrations; for Increase in virus production: concentrations of 1.0 μg ml^-1 or less
# Protocol: Phytohaemagglutinin stimulated human peripheral blood mononuclear cells (PHA-PMNCs) were exposed to A-CDS and PPS and infected with HIV-1 as follows. PMNCs stimulated with 10.0 μg ml^-1 of PHA were further propagated in Medium B (RPMI-1640 medium with 10% fetal calf serum, 10% T-cell growth factor, and 1:500 goat antibody to human Interferon) at 10^8 cells ml^-1 in 20 ml and were exposed to different concentrations of drugs and simultaneously infected with 10000 c.p.m. ml^-1 of HIV-1 in 20 ml/culture flask. Cultures were tested for the quantity of cell-free virus in the culture supernatants using the RT method. RT activity in the disrupted virions was tested by using exogenous template poly (rA).(dT)12-18 as described (Anand et al., (1988), supra. The reaction mixture consisted of 50mM Tris-hydrochloride (pH 7.5), 5mM dithiothreitol 100mM KCI, 10mM MgClhd 2, 10 μM [^3 H]-TTP, Triton X-100 containing poly (rA).(dT)12-18 at 30 μg ml^-1 (mcg ml^-1). The reaction mixture was incubated at 37° C. for 2 hours, and [^3 H]-TTP incorporated into polymers was precipitated with 10% trichloroacetic acid, collected on a glass fibre filter, and counted in an LKB 1219 Rackbeta scintillation counter. Various cultures in the experiment are represented: .quadrature.-.quadrature., A-CDS; .smallcircle.-.smallcircle., PPS; .smallcircle.-.smallcircle., B-CDS. The values are means of two determinations tested in two separate experiments. The range of variation was no greater than 15%.
# After two days, PMNCs were infected and studied for the change in virus replication in the presence of drugs and for the direct effect of drugs on cell multiplication.
# PMNCs stimulated with PHA were further propagated in Medium B(RPMI-1640 with 10% fetal calf serum. 10% T-cell growth factor and 1:500 diluted goat antibody to human interferon). […] In general, four hours after injection and drug treatment, cultures were centrifuged to remove the extracellular virus and the cells were resuspended in fresh Medium B and replenished with appropriate drug concentrations. The percent change in virus replication was calculated as (x-c)/c×100, where x represented the experimental value and c represented the control value.
# Reduction in RT activity was a reflection of the inhibition of virus production and therefore virus replication. The virus was prepared from the drug-treated and untreated culture supernatants.
# Cultures were infected with virus and treated with the drugs simultaneously and were tested to evaluate the amount of virus production by the reverse transcriptase (RT) method.
# [2] = test system: PMNCs; conditions: for % <Decrease (viable cells): decrease vs control; for Viable cells: controls 118 and 106; for % >Increase (viable cells): increase vs control
# Protocol: Uninfected PMNCs, drug-treated PMNCs, and drug-treated and virus-infected PMNCs in different experiments were tested for drug toxicity and for the alterations in the numbers of viable cells in response to drug treatment by trypan blue exclusion method.
# To understand the mechanism of virus enhancement and to evaluate the toxicity of the sulphated sugars to PMNCs in culture, cell viability counts were performed on trypan blue-stained cells.
# [3] = test system: PMNCs; assay: Cell proliferation (cell count) with hydrocortisone phosphate and α-cyclodextrin sulfate; assay type: cell-based, human
# Source text: Anti-HIV Effects of Sulphated Sugars in Presence of Glucocorticoids. HIV infections are at some later stages invariably complicated by pathologies which involve neovascularization, particularly those associated with Kaposi's sarcoma. Previously, Folkman et al., Science 243, 1490-1493, 1989, observed that B-CDS stimulates this particular pathology, but that this side-effect can be suppressed by glucocorticoids. […] Thus, pathological neovascularization can be avoided without comprising the anti-HIV effects.
# [4] = molecular target: T1, reverse transcriptase enzyme of detergent-disrupted LAV-1BRU isolate (Human immunodeficiency virus type 1 (BRU ISOLATE), UniProt P03367); assay: Direct effect on reverse transcriptase enzyme activity of detergent-disrupted virus; assay type: biochemical; conditions: for Inhibition of RT enzyme activity: concentrations tested up to 25.0 μg ml^-1; for RT activity: control 180; for % >Increase (RT activity): increase vs control; for % <Decrease (RT activity): decrease vs control
# T1 construct: poly(rA).oligo(dT) template
# Source text: Microb. Agents Chemother. 32:684-688 (1988).
# The direct effect of A-CDS, B-CDS and PPS on the reverse transcriptase enzyme activity by treating a detergent-disrupted LAV-1BRU isolate with these drugs and subjecting it to the RT method was examined.
# [5] = test system: HIV-1 p24 antigen; assay: p24 antigen ELISA in supernatant-free lysed cells; assay type: cell-based; conditions: supernatant-free lysed cells after exposure
# Source text: Intracellular changes in the amount of HIV-1 following exposure to PPS were studied by measuring p24 antigen in the supernatant-free lysed cells.
# [6] = hydrocortisone phosphate 5 μg/ml alone
# [7] = α-cyclodextrin sulfate 2.5 μg/ml alone
# [8] = α-cyclodextrin sulfate 5.0 μg/ml alone
# [9] = α-cyclodextrin sulfate 10.0 μg/ml alone
molecule,measurement,setting,value
"Cc1cn([C@H]2C[C@H](N=[N+]=[N-])[C@@H](CO)O2)c(=O)[nH]c1=O [AZT, 3'-azido-2',3'-dideoxythy-midine]",Replication (fold decrease),[1]; AZT 10 nM alone,1.2 fold decrease
same,RT activity,"[1]; AZT 10 nM alone, control 164",134 c.p.m. × 10^3 ml^-1
same,% <Decrease (viable cells),[2]; 10nM,35%
same,Viable cells,[2],72 10^4 ml^-1
C[C@]12CCC(=O)C=C1CC[C@@H]1[C@@H]2[C@@H](O)C[C@@]2(C)[C@H]1CC[C@]2(O)C(=O)COP(=O)(O)O [hydrocortisone phosphate],Inhibition of HIV-1 reverse transcriptase activity (%),[1]; [6],39% and 20%
same,Cell Count in million per mL,[3]; [6],1.2 million per mL and 1.0 million per mL
.varies.-cyclodextrin sulphate [A-CDS],Inhibition of HIV-1 replication in PMNC cultures,[1],potent inhibitors
same,Replication (fold decrease),[1]; A-CDS 0.5 μg ml^-1 alone,2.8 fold decrease
same,RT activity,"[1]; A-CDS 0.5 μg ml^-1 alone, control 164",57 c.p.m. × 10^3 ml^-1
same,Replication (fold decrease),[1]; A-CDS 1.5 μg ml^-1 alone,4.9 fold decrease
same,RT activity,"[1]; A-CDS 1.5 μg ml^-1 alone, control 164",33 c.p.m. × 10^3 ml^-1
same,Relative anti-HIV potency from the dose-response relationship,"[1]; PMNC cultures, infected and treated simultaneously","more potent in anti-HIV action than PPS, B-CDS and DS"
same,Virus-enhancement effect,[1],lacks the virus-enhancement effect
same,Inhibition of HIV-1 reverse transcriptase activity (%),[1]; α-cyclodextrin sulfate 0.5 μg/ml alone,77%
same,Inhibition of HIV-1 reverse transcriptase activity (%),[1]; α-cyclodextrin sulfate 1.0 μg/ml alone,72%
same,Inhibition of HIV-1 reverse transcriptase activity (%),[1]; [7],80%
same,Inhibition of HIV-1 reverse transcriptase activity (%),[1]; [8],83%
same,Inhibition of HIV-1 reverse transcriptase activity (%),[1]; [9],91%
same,Inhibition of RT enzyme activity,[4],No inhibition
same,Cell Count in million per mL,[3]; [7],1.2 million per mL
same,Cell Count in million per mL,[3]; [8],1.3 million per mL
same,Cell Count in million per mL,[3]; [9],1.5 million per mL
same,Viable cells,[2]; conc. 0.1 μg ml^-1,140 10^4 ml^-1
same,% >Increase (viable cells),[2]; conc. 0.1 μg ml^-1,25%
same,Viable cells,[2]; conc. 0.5 μg ml^-1,128 10^4 ml^-1
same,% >Increase (viable cells),[2]; conc. 0.5 μg ml^-1,14%
Pentosan polysulfate [PPS],Inhibition of HIV-1 replication in PMNC cultures,[1],potent inhibitors
same,Replication <% decrease,[1]; PPS 2.0 μg ml^-1 alone,77.0%
same,RT activity,"[1]; PPS 2.0 μg ml^-1 alone, control 187",43 c.p.m. × 10^3 ml^-1
same,Increase in virus production,[1],up to a three-fold increase in virus production
same,Virus-enhancement effect,[1],virus-enhancement effect
same,HIV-specific p24 in the cells,[5],decrease in HIV-specific p24 in the cells
same,Enhancement of the RT reaction,[4]; 0.1 and 0.5 μg ml^-1,enhancement of the reaction
same,RT activity,[4]; drug conc. 0.1 μg ml^-1,194 c.p.m. × 10^3 ml^-1
same,% >Increase (RT activity),[4]; drug conc. 0.1 μg ml^-1,7.7%
same,RT activity,[4]; drug conc. 0.5 μg ml^-1,219 c.p.m. × 10^3 ml^-1
same,% >Increase (RT activity),[4]; drug conc. 0.5 μg ml^-1,21.6%
same,RT activity,[4]; drug conc. 2.0 μg ml^-1,163 c.p.m. × 10^3 ml^-1
same,% <Decrease (RT activity),[4]; drug conc. 2.0 μg ml^-1,9.4%
same,RT activity,[4]; drug conc. 4.0 μg ml^-1,22 c.p.m. × 10^3 ml^-1
same,% <Decrease (RT activity),"[4]; drug conc. 4.0 μg ml^-1, 120 min",87% and 87.7%
same,RT activity,[4]; drug conc. 5.0 μg ml^-1,17 c.p.m. × 10^3 ml^-1
same,RT activity,[4]; drug conc. 6.0 μg ml^-1,17 c.p.m. × 10^3 ml^-1
same,% <Decrease (RT activity),"[4]; drug conc. 6.0 μg ml^-1, 120 min",90.5%
same,RT activity,[4]; drug conc. 8.0 μg ml^-1,9 c.p.m. × 10^3 ml^-1
same,% <Decrease (RT activity),"[4]; drug conc. 8.0 μg ml^-1, 120 min",95.0%
same,RT activity,[4]; drug conc. 10.0 μg ml^-1,7 c.p.m. × 10^3 ml^-1
same,% <Decrease (RT activity),"[4]; drug conc. 10.0 μg ml^-1, 120 min",97.7%
same,RT activity,[4]; drug conc. 15.0 μg ml^-1,4 c.p.m. × 10^3 ml^-1
same,% <Decrease (RT activity),"[4]; drug conc. 15.0 μg ml^-1, 120 min",97.7%
same,RT activity,[4]; drug conc. 20.0 μg ml^-1,2 c.p.m. × 10^3 ml^-1
same,% <Decrease (RT activity),"[4]; drug conc. 20.0 μg ml^-1, 120 min",99.8%
same,RT activity,[4]; drug conc. 25.0 μg ml^-1,1 c.p.m. × 10^3 ml^-1
same,% <Decrease (RT activity),"[4]; drug conc. 25.0 μg ml^-1, 120 min",99.4%
same,Viable cells,[2]; conc. 0.1 μg ml^-1,268 10^4 ml^-1
same,% >Increase (viable cells),[2]; conc. 0.1 μg ml^-1,141%
same,Viable cells,[2]; conc. 0.5 μg ml^-1,202 10^4 ml^-1
same,% <Decrease (viable cells),[2]; conc. 0.5 μg ml^-1,80%
same,"Lymphoproliferative effect, increase in cell numbers relative to control cultures",[2]; particularly at low drug concentrations,more lymphoproliferative activity than B-CDS and A-CDS
same,Protective effect on infected cells from HIV-associated cytopathic effect,"[2]; virus-infected PMNCs, relative to virus-infected drug-free cultures",more than A-CDS and B-CDS
dextran sulphate [DS],Virus-enhancement effect,[1],virus-enhancement effect
same,Viable cells,[2]; conc. 0.1 μg ml^-1,170 10^4 ml^-1
same,% <Decrease (viable cells),[2]; conc. 0.1 μg ml^-1,51%
same,Viable cells,[2]; conc. 0.5 μg ml^-1,90 10^4 ml^-1
same,% >Increase (viable cells),[2]; conc. 0.5 μg ml^-1,19%
β-cyclodextrin sulphate [B-CDS],Inhibition of HIV-1 replication in PMNC cultures,[1],potent inhibitors
same,Replication <% decrease,[1]; B-CDS 2.5 μg ml^-1 alone,40.1%
same,RT activity,"[1]; B-CDS 2.5 μg ml^-1 alone, control 187",112 c.p.m. × 10^3 ml^-1
same,Increase in virus production,[1],up to a three-fold increase in virus production
same,Virus-enhancement effect,[1],virus-enhancement effect
same,Inhibition of RT enzyme activity,[4],No inhibition
same,Viable cells,[2]; conc. 0.1 μg ml^-1,188 10^4 ml^-1
same,% >Increase (viable cells),[2]; conc. 0.1 μg ml^-1,67%
same,Viable cells,[2]; conc. 0.5 μg ml^-1,140 10^4 ml^-1
same,% >Increase (viable cells),[2]; conc. 0.5 μg ml^-1,25%
